{"source": "patent US8618095B2", "about": "(Rigel Pharmaceuticals, Inc., priority 2010, dated 2013)", "note": "pIC50: −log10 of the molar value. Counter-ions that a name gives are not always drawn.", "data": [{"system": "Human mast cells (CHMC)", "assay": "LD Tryptase release assay in CHMC (mast cell activation induced by FcγR cross-linking)", "type": "cell-based", "conditions": "Homo sapiens, Mast cell, anti-IgG stimulation, activity of tryptase released upon degranulation", "how_it_was_run": "(§1)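 Mast cells derived from CD38-negative progenitors were preincubated 1 h at 37 °C with compound in HEPES-buffered saline (pH 7.4, 0.1% BSA, compound diluted in buffer with 2% MeOH/1% DMSO). Cells were then stimulated 60 min with anti-human IgG (final 1 μg/mL). Released tryptase was measured on Z-Ala-Lys-Arg-AMC (30 min, room temperature, 355/460 nm) to give the IC50.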", "values": [{"smiles": "CC1(C)Oc2ccc(Nc3nc(Nc4ccc(N5CCOC5=O)nc4)ncc3F)nc2NC1=O", "note": "[Compound 72, N4-(2,2-dimethyl-3,4-dihydro-3-oxo-2H-pyrido[3,2-b][1,4]oxazin-6-yl)-5-fluoro-N2-[6-(2-oxooxazolidin-3-yl)pyridin-3-yl]-2,4-pyrimidinediamine]", "pIC50": "6.30 to 7.00"}, {"smiles": "CC1(C)Oc2ccc(Nc3nc(Nc4ccc(N5CCC6(CC5)COC6)cc4)ncc3F)nc2NC1=O", "note": "[Compound 158, N4-(2,2-dimethyl-3,4-dihydro-3-oxo-2H-pyrido[3,2-b][1,4]oxazin-6-yl)-5-fluoro-N2-[4-(2-oxa-7-azaspiro[3.5]nonan-7-yl)phenyl]-2,4-pyrimidinediamine]", "pIC50": "6.30 to 7.00"}, {"smiles": "O=C1COc2ccc(Nc3nc(Nc4ccc(N5CCOCC5)nc4)ncc3F)nc2N1", "note": "[Compound 5, N4-(3,4-dihydro-3-oxo-2H-pyrido[3,2-b][1,4]oxazin-6-yl)-5-fluoro-N2-[6-morpholinopyridin-3-yl]-2,4-pyrimidinediamine]", "pIC50": "6.30 to 7.00"}, {"smiles": "O=C1COc2ccc(Nc3nc(Nc4ccc(N5CCO[C@H](CCO)C5)cc4)ncc3F)nc2N1", "note": "(stereo in doubt) [Compound 125, N4-(3,4-dihydro-3-oxo-2H-pyrido[3,2-b][1,4]oxazin-6-yl)-5-fluoro-N2-[4-((2-hydroxyethyl)morpholino)phenyl]-2,4-pyrimidinediamine]", "pIC50": "> 7.00"}, {"smiles": "C[C@H]1COCCN1c1ccc(Nc2ncc(F)c(Nc3ccc4c(n3)NC(=O)C(C)(C)O4)n2)cc1", "note": "[Compound 120, N4-(2,2-dimethyl-3,4-dihydro-3-oxo-2H-pyrido[3,2-b][1,4]oxazin-6-yl)-5-fluoro-N2-[4-((3S)-3-methylmorpholino)phenyl]-2,4-pyrimidinediamine]", "pIC50": "6.30 to 7.00"}, {"smiles": "CN1CCN(c2ccc(Nc3ncc(F)c(Nc4ccc5c(n4)NC(=O)C(C)(C)O5)n3)cn2)CC1", "note": "[Compound 18, N4-(2,2-dimethyl-3,4-dihydro-3-oxo-2H-pyrido[3,2-b][1,4]oxazin-6-yl)-5-fluoro-N2-[6-(4-methylpiperazin-1-yl)pyridin-3-yl]-2,4-pyrimidinediamine]", "pIC50": "6.00 to 6.30"}, {"smiles": "O=C1COc2ccc(Nc3nc(Nc4ccc5c(c4)OCC4COCCN54)ncc3F)nc2N1", "note": "(centres unmarked) [Compound 84, N4-(3,4-dihydro-3-oxo-2H-pyrido[3,2-b][1,4]oxazin-6-yl)-5-fluoro-N2-[1,2,4a,5-tetrahydro-4H-[1,4]oxazino[3,4-c][1,4]benzoxazin-8-yl]-2,4-pyrimidinediamine]", "pIC50": "6.30 to 7.00"}, {"smiles": "CC1(C)Oc2ccc(Nc3nc(Nc4ccc(C5CCOCC5)cc4)ncc3F)nc2NC1=O", "note": "[Compound 47, N4-(2,2-dimethyl-3,4-dihydro-3-oxo-2H-pyrido[3,2-b][1,4]oxazin-6-yl)-5-fluoro-N2-[4-tetrahydropyranophenyl]-2,4-pyrimidinediamine]", "pIC50": "4.00 to 6.00"}, {"smiles": "O=C1COc2ccc(Nc3nc(Nc4ccc(N5CCCCC5)cc4)ncc3F)nc2N1", "note": "[Compound 83, N4-(3,4-dihydro-3-oxo-2H-pyrido[3,2-b][1,4]oxazin-6-yl)-5-fluoro-N2-[4-(piperidin-1-yl)phenyl]-2,4-pyrimidinediamine]", "pIC50": "6.30 to 7.00"}, {"smiles": "CC1(C)Oc2ccc(Nc3nc(Nc4ccc(-c5cccnc5)nc4)ncc3F)nc2NC1=O", "note": "[Compound 75, N4-(2,2-dimethyl-3,4-dihydro-3-oxo-2H-pyrido[3,2-b][1,4]oxazin-6-yl)-5-fluoro-N2-[2,3′-bipyridin-5-yl]-2,4-pyrimidinediamine]", "pIC50": "4.00 to 6.00"}]}, {"system": "Human mast cells (CHMC)", "assay": "LD Tryptase release assay in CHMC (mast cell activation induced by FcγR cross-linking)", "type": "cell-based", "conditions": "anti-IgG stimulation, activity of tryptase released upon degranulation", "how_it_was_run": "as §1", "values": [{"smiles": "C[C@H]1COCCN1c1ccc(Nc2ncc(F)c(Nc3ccc4c(n3)N(COP(=O)(O)O)C(=O)C(C)(C)O4)n2)cn1", "note": "[Compound 97, N4-(2,2-dimethyl-3,4-dihydro-4-[(dihydrogenphosphonoxy)methyl]-3-oxo-2H-pyrido[3,2-b][1,4]oxazin-6-yl)-5-fluoro-N2-[6-((3S)-3-methylmorpholino)pyridin-3-yl]-2,4-pyrimidinediamine disodium salt]", "pIC50": "4.00 to 6.00"}]}]}
